The target in test [1] is T1, 11beta-HSD1 (Homo sapiens, UniProt P28845). Kind of test: In vitro inhibition of recombinant human 11beta-HSD1 (microsomal Scintillation Proximity Assay). Type of test: biochemical. More on the design: made in house; microsomal fraction used as enzyme source. The following applies: microsomes from HEK 293 EBNA cells, 250 nM [3H]-cortisone, 500 μM NADPH, pH 6.5, room temperature. As for the experimental part:
The in vitro inhibition of recombinant human 11beta-HSD1 was determined as follows.
Cells were grown in DMEM (high glucose) containing MEM non-essential amino acids, L-glutamine, hygromycine B (200 ug/ml), and G418(200 ug/ml). The cell pellets were homogenized, and the microsomal fraction was obtained by differential centrifugation. 11beta-HSD1 over expressed microsomes were used as the enzyme source for the Scintillation Proximity Assay (SPA). […] The reaction was terminated with the addition of 1 mM 18β-glycerrhentic acid. SPA reagent mixture (YSi anti-rabbit IgG, anti-cortisol antibody in 50 mM Tris, pH 8.0 containing 1% CHAPS and 1% glycerol) was added and the reaction was further incubated at room temperature over night and counted in TopCount. […]
On the technique in general: In a scintillation proximity assay essentially only radioactivity close to the scintillant gives light.

In test [2] the target is T1, 11beta-HSD1. More on the design: host or cells: patients (liver), in vivo. The conditions noted are these: patients with type 2 diabetes, seven day treatment, versus placebo; cited from earlier work.

pIC50: −log10 of the molar value. Where two headings read alike, the source gives them in different places. Where only a bound is given, the exact number is not on record here.

T1 sequence (P28845 whole entry): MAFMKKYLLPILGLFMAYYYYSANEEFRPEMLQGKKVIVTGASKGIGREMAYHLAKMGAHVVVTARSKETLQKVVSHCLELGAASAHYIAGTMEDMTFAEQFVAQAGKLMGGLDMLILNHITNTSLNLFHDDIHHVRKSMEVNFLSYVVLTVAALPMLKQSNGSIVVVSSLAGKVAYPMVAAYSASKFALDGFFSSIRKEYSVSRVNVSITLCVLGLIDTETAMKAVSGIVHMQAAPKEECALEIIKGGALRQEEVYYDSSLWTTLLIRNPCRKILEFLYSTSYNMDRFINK

Turning to “4,7-Dichloro-1-(2-chlorobenzylthio)isoquinolin-3-ol [Example 109]”, in test [1] (read-out: IC50 (concentration of compound required for 50% inhibition of cortisol formation)), the pIC50 is 6.17. Turning to `NC(=O)c1c(O)nc(SCc2ccccc2Cl)c2c1CCCC2` [Example 3, 1-(2-Chlorobenzylthio)-3-hydroxy-5,6,7,8-tetrahydroisoquinoline-4-carboxamide], the pIC50 in test [1] is under 5.00. For the molecule `O=C(O)c1c(O)nc(SCc2ccccc2Cl)c2c1CCCC2` [Example 6, 1-(2-Chlorobenzylthio)-3-hydroxy-5,6,7,8-tetrahydroisoquinoline-4-carboxylic acid], the pIC50 in test [1] is 6.33. The same measure, in the same setting: for `Oc1cc2c(c(SCc3ccccc3Cl)n1)N1CCC2CC1` [Example 29] the value was under 5.00; for `N#Cc1c(O)nc(SCc2cccnc2Cl)c2c1CCCC2` [Example 32], 8.56.

As to `N#Cc1c(O)nc(SCc2ccccc2Cl)c2c1CCNC2` [Example 35], the pIC50 in test [1] is 6.34.

Regarding `Oc1nc(SCc2cccc(Cl)c2)c2ccccc2c1Cl` [Example 115], the pIC50 in test [1] was 6.11. In the case of `O=S(=O)(Cc1cccc(Cl)c1)c1nc(O)c(Cl)c2ccccc12` [Example 118], the pIC50 in test [1] was 6.28. On to `N#Cc1ccccc1CSc1nc(O)c(Cl)c2ccccc12` [Example 130], for which, in test [1], the pIC50 was 8.57. In the case of `N#Cc1ccccc1CSc1nc(O)c(Cl)c2ccc(Cl)cc12` [Example 132], in test [1], the pIC50 was 8.65. As for `N#Cc1c(O)nc(SCc2cnccc2Cl)c2cc(F)ccc12` [Example 164], the pIC50 in test [1] was 8.56. Consider `N#Cc1ccncc1CSc1nc(O)c(C#N)c2ccc(F)cc12` [Example 170], for which the pIC50 in test [1] was 8.83.

Turning to `N#Cc1c(O)nc(SCc2cc(F)ccc2F)c2cc(F)ccc12` [Example 175], in test [1], the pIC50 was 8.59.

With `N#Cc1cccc(Cl)c1CSc1nc(O)c(C#N)c2ccc(F)cc12` [Example 181], the pIC50 in test [1] was 8.52.

For `N#Cc1ccccc1-c1c(O)nc(SCc2ccccc2Cl)c2c1CCCC2` [Example 292], the pIC50 in test [1] is 6.54. `CC1(C)[C@@H](OC(=O)CCC(=O)O)CC[C@]2(C)[C@H]3C(=O)C=C4[C@@H]5C[C@@](C)(C(=O)O)CC[C@]5(C)CC[C@@]4(C)[C@]3(C)CC[C@@H]12` [carbenoxolone]: in test [2], the hepatic glucose production entry is given as “decrease in hepatic glucose production”.

Values taken from patent US8318941B2, “Pyridone/hydroxypyridine 11-beta hydroxysteroid dehydrogenase type I inhibitors” (Bristol-Myers Squibb Company, priority 2006, dated 2012).
